Data: article PMC12186843, “Targeting GABAergic Hypofunction Associated with Schizophrenia: Identification of α1β2γ2GABA‑A Receptor Ligands with Neuroprotective and Antipsychotic Properties” (ACS Chemical Neuroscience, 2025)

What was measured:
α1β2γ2 GABA-A receptor = biological target: T1, α1β2γ2 GABA-A receptor (Homo sapiens, UniProt P14867+P18507); assay: Electrophysiological studies (QPatch16X automated patch-clamp), PAM efficacy; assay type: cell-based
T1 construct: expressed in transfected cells

[1] = Metabolic stability in human liver microsomes; assay type: in vitro ADME
Protocol: In Eppendorf tubes, potassium phosphate buffer (pH 7.4), a working solution of the test compound, and human liver microsomes (final concentration: 0.4 mg/mL, Sigma-Aldrich) were combined. The mixture was incubated at 37 °C with shaking for 15 min in a thermoblock. Following this, an NADPH regeneration system (Sigma-Aldrich) was added to the mixture, which was subsequently incubated with shaking at 37 °C for various time intervals (5, 15, 30, 60, 90, 120, 150, 180, 210, and 240 min). A control experiment was run in parallel, replacing the regeneration fraction with phosphate buffer. At the designated incubation times, an internal standard (levallorphan, Sigma-Aldrich) was added to each sample. To terminate the reaction, 70% perchloric acid (Sigma-Aldrich) was added, and the samples were centrifuged at 6000 rpm for 10 min at 4 °C. The resulting supernatants were collected and subjected to LC-MS/MS analysis. Each sample was analyzed in duplicate.

[2] = Metabolic stability in mouse liver microsomes; assay type: in vitro ADME
[3] = Metabolic stability in rat liver microsomes; assay type: in vitro ADME
MDR1-MDCKII cell line = assay: A–B and B–A permeability assay in MDR1-MDCKII cell line; conditions: MDCK-MDR1 permeability assay
Protocol: (§1) The A–B and B–A permeability assay using the MDR1-MDCKII cell line was conducted at Eurofins Discovery according to a well-established protocol.

[4] = test system: P-glycoprotein (P-gp, MDR1); assay: as above; conditions: dog
Protocol: as §1

SH-SY5Y cells [5] = assay: Intracellular calcium concentration after 6-OHDA (Fluo-4); assay type: cell-based, human; conditions: 50 μM pretreatment 1 h, then 6-OHDA 250 μM 1 h
Protocol: (§2) 7 (A). Effect of 6-Hydroxydopamine (6-OHDA) on intracellular calcium concentration [Ca^2+] determined by Fluo-4 AM. After pretreatment with tested compounds (50 μM) or vehicle (0.5% DMSO, v/v) for 1 h, the cells were incubated with 6-Hydroxydopamine (6-OHDA, 250 μM) for 1 h. 6-OHDA control: cells treated with 250 μM of 6-OHDA. […]. DMSO control: cells treated with 0.5% DMSO only. Data are presented as the mean ± SD from 2–3 independent experiments. Experiments were carried on with ImageXpress Micro XLS (Molecular Devices). (B) The level of ROS generation was determined by Cell ROX dye. After pretreatment with tested compounds (50 μM) or vehicle (0.5% DMSO, v/v) for 1 h, the cells were incubated with hydrogen peroxide (H2O2, 300 μM) for 1 h. H2O2 control: cells treated with H2O2 (300 μM). DMSO control: cells treated with 0.5% DMSO only. Data are presented as the mean ± SD from 2–3 independent experiments. Experiments were carried on with the ImageXpress Micro XLS (Molecular Devices).
The SH-SY5Y human neuroblastoma cell line was maintained according to established protocols. The cells, obtained from the American Type Culture Collection (ATCC), were cultured in Dulbecco’s Modified Eagle’s Medium (DMEM, high glucose; Thermo Fisher), supplemented with 10% fetal bovine serum (Thermo Fisher), 100 IU/ml penicillin (Merck), and 100 μg/mL streptomycin (Merck). They were grown in 75 cm^2 flasks (Nunc) at 37 °C in a humidified atmosphere containing 5% CO2. For compound evaluation, SH-SY5Y cells were plated in 96-well plates (Falcon) at a density of 2 × 10^4 cells per well. The cells were allowed to adhere and grow for 24 h in an incubator set to 37 °C and 5% CO2 before starting the experiments. Stock solutions of both test and reference compounds were prepared at a concentration of 10^–2 M. A minimum of 1 mg of each compound was dissolved in dimethyl sulfoxide (DMSO). Serial dilutions were made in DMSO, then further diluted in PBS, mixed, and added to the cell culture medium.
The intracellular Ca^2+ levels were assessed using a homogeneous cell-based assay with the Fluo-4 Direct Calcium Assay Kit (Thermo Fisher). Following incubation with the tested compounds, the supernatant was discarded, and the cells were incubated with 1 μM Fluo-4/AM in FluoroBrite DMEM (Thermo Fisher) for 1 h at 37 °C. The results were expressed as a percentage relative to the control (DMSO). Fluorescence intensity was recorded using the ImageXpress Micro XLS system (Molecular Devices).

SH-SY5Y cells [6] = assay: ROS generation after hydrogen peroxide (CellROX); assay type: cell-based, human; conditions: 50 μM pretreatment 1 h, then H2O2 300 μM 1 h
Protocol: as §2
The SH-SY5Y human neuroblastoma cell line was maintained according to established protocols. […]
Cellular reactive oxygen species (ROS) levels were determined using the CellROX Deep Red Reagent (Thermo Fisher). […] The results were expressed as a percentage relative to the control (DMSO). Fluorescence intensity was measured using the ImageXpress Micro XLS system (Molecular Devices).

SH-SY5Y cells [7] = assay: ToxiLight assay (cell membrane damage); assay type: cell-based; conditions: Table S1, 24 h
Protocol: Damage to the cell membrane was assessed using the bioluminescent ToxiLight bioassay (Lonza), a profound method for detecting cell toxicity. Following 24 h of treatment, 5 μL of the supernatant above the sediment was transferred to a 384-well plate (PerkinElmer). Subsequently, 20 μL of Adenylate Kinase Detection Reagent (AKDR) was added to each well. Luminescence was recorded after a 10 min incubation period using a POLARstar Omega plate reader (BMG Labtech). Results are presented as a percentage relative to the control sample (cells lysed), reflecting the proportion of dead cells compared to the control.
(§3) 1. Cytotoxicity studies for selected compounds
Table S1. The viability of the cells SH-SY5Y after treatment with tested compounds for 24 the results are expressed as a percentage of dead cells with luminescence ToxiLight Assay. The results are expressed as a per cent of control with whole lysis cells. N.C. not countable […]
Table S2. The viability of the cells SH-SY5Y after treatment with tested compounds for 24 h the results are expressed as a percentage of live cells with fluorescence PrestoBlue Assay. The results are expressed as a per cent of vehicle (DMSO). […]

SH-SY5Y cells [8] = assay: PrestoBlue cell viability assay; assay type: cell-based; conditions: Table S2, 24 h
Protocol: Cell viability was determined using the Presto Blue reagent (ThermoFisher) following the manufacturer’s instructions.
as §3
Table S1. The viability of the cells SH-SY5Y after treatment with tested compounds for 24 the results are expressed as a percentage of dead cells with luminescence ToxiLight Assay. The results are expressed as a per cent of control with whole […]
percentage of live cells with fluorescence PrestoBlue Assay. The results are expressed as a per cent of vehicle (DMSO).

T1 sequence (P14867 28-456): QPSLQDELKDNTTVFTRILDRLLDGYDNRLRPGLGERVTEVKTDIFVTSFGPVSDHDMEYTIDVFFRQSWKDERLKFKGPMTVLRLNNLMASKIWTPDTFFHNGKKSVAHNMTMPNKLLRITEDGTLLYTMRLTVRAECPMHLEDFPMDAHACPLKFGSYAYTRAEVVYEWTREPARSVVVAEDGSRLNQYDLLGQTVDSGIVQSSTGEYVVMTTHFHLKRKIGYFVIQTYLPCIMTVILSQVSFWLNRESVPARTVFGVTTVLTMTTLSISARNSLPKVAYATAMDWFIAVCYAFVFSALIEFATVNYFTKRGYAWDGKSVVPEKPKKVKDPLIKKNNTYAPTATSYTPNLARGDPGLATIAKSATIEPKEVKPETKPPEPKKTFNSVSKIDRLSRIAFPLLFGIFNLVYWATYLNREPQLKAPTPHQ
T1 sequence (P47870 25-512 partner limits assumed): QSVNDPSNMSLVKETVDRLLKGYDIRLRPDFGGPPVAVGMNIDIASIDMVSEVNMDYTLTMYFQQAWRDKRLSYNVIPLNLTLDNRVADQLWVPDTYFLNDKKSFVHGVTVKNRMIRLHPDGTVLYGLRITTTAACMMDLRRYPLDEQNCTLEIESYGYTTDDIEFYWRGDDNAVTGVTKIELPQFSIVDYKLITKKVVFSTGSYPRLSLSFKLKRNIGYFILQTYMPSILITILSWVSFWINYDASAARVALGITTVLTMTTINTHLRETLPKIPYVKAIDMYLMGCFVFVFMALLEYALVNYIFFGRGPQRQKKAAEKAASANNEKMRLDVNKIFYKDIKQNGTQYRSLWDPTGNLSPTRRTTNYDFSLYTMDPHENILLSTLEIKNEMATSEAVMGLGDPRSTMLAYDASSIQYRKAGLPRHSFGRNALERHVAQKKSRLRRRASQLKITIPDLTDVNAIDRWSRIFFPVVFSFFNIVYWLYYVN
T1 sequence (P18507 40-475): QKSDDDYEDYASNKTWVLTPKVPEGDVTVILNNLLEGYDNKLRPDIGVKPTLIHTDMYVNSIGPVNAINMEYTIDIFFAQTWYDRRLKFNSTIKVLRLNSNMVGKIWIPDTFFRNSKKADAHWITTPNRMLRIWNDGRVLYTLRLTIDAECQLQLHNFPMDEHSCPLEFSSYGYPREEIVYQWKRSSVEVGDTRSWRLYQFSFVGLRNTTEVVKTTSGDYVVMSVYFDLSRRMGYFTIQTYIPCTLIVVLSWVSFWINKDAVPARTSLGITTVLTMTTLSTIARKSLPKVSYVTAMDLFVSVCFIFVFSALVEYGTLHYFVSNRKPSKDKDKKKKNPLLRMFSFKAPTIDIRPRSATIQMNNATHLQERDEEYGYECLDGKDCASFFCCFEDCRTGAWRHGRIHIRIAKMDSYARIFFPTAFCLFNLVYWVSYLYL

Structure (SMILES): Cc1ccc2nc(-c3ccc(F)cc3)c(CC(=O)N3CC(C)NC(C)C3)n2c1 (stereo not shown) [Compound 6, 1-(3,5-Dimethylpiperazin-1-yl)-2-[2-(4-fluorophenyl)-6-methylimidazo[1,2-a]pyridin-3-yl]ethan-1-one]
- EC50 (α1β2γ2 GABA-A receptor): 872 ± 77 nM
- t0,5 HLMs [1]: >60 min
- remaining at 0.25 h ([1]; human, liver microsomes, pH 7.4, after 15 min of biotransformation, read-out: % remaining of the parent compound HLMs): 74%
- microsomal CLint ([1]; human, liver microsomes, pH 7.4, read-out: Clint HLMs): < 40 µL/min/mg
- t0,5 MLMs [2]: 58 min
- remaining at 0.25 h ([2]; mouse, liver microsomes, pH 7.4, after 15 min of biotransformation, read-out: % remaining of the parent compound MLMs): 68%
- microsomal CLint ([2]; mouse, liver microsomes, pH 7.4, read-out: Clint MLMs): < 40 µL/min/mg
- t0,5 RLMs [3]: 44 min
- remaining at 0.25 h ([3]; rat, liver microsomes, pH 7.4, after 15 min of biotransformation, read-out: % remaining of the parent compound RLMs): 70%
- microsomal CLint ([3]; rat, liver microsomes, pH 7.4, read-out: Clint RLMs): < 40 µL/min/mg
- Substrate for P-glycoprotein (P-gp) efflux (MDR1-MDCKII cell line): possible substrate
- Papp A→B at 10 μM ([4]; MDCK-MDR1, pH 7.4): 14.5 ×10⁻⁶ cm/s
- Papp B→A at 10 μM ([4]; MDCK-MDR1, pH 7.4): 24.6 ×10⁻⁶ cm/s
- efflux ratio at 10 μM ([4]; MDCK-MDR1, pH 7.4, Efflux ratio (Paap B–A/A–B), pH 7.4/7.4, 6 and 17 at 10 μM): 1.68
- Reduction of intracellular calcium levels (SH-SY5Y cells [5]): 28%
- Decrease of ROS levels (SH-SY5Y cells [6]): 32%
- X [%], percentage of dead cells, ToxiLight Assay (per cent of control with whole lysis cells) (SH-SY5Y cells [7]; 1E-04 M): 74%
- X [%], percentage of dead cells, ToxiLight Assay (per cent of control with whole lysis cells) (SH-SY5Y cells [7]; 1E-05 M): 93%
- X [%], percentage of dead cells, ToxiLight Assay (per cent of control with whole lysis cells) (SH-SY5Y cells [7]; 1E-06 M): 109%
- X [%], percentage of dead cells, ToxiLight Assay (per cent of control with whole lysis cells) (SH-SY5Y cells [7]; 1E-07 M): 97%
- X [%], percentage of dead cells, ToxiLight Assay (per cent of control with whole lysis cells) (SH-SY5Y cells [7]; 1E-08 M): 108%
- X [%], percentage of dead cells, ToxiLight Assay (per cent of control with whole lysis cells) (SH-SY5Y cells [7]; 1E-09 M): 101%
- X [%], percentage of dead cells, ToxiLight Assay (per cent of control with whole lysis cells) (SH-SY5Y cells [7]; 3E-05 M): 87%
- X [%], percentage of dead cells, ToxiLight Assay (per cent of control with whole lysis cells) (SH-SY5Y cells [7]; 3E-06 M): 105%
- X [%], percentage of live cells, PrestoBlue Assay (per cent of vehicle DMSO) (SH-SY5Y cells [8]; 1E-05 M): 17%
- X [%], percentage of live cells, PrestoBlue Assay (per cent of vehicle DMSO) (SH-SY5Y cells [8]; 1E-06 M): 16%
- X [%], percentage of live cells, PrestoBlue Assay (per cent of vehicle DMSO) (SH-SY5Y cells [8]; 1E-07 M): 17%
- X [%], percentage of live cells, PrestoBlue Assay (per cent of vehicle DMSO) (SH-SY5Y cells [8]; 1E-08 M): 18%
- X [%], percentage of live cells, PrestoBlue Assay (per cent of vehicle DMSO) (SH-SY5Y cells [8]; 1E-09 M): 17%
- X [%], percentage of live cells, PrestoBlue Assay (per cent of vehicle DMSO) (SH-SY5Y cells [8]; 3E-05 M): 17%
- X [%], percentage of live cells, PrestoBlue Assay (per cent of vehicle DMSO) (SH-SY5Y cells [8]; 3E-06 M): 16%
